Reference: the NIST ThermoML archive (doi:10.1021/je300280s)
“And” between values parts separate entries of the source, which are not always exact repeats. Identical values can stand only once.

Experiments:
[1] = excess molar enthalpy (molar enthalpy of mixing); xn = mol fraction of the nth substance listed; details: 318.15 K; 101.3 kPa; Liquid; Flow calorimetry; x1 = 0.006164
[2] = xn = mol fraction of the nth substance listed; details: 101.3 kPa, Liquid, Vibrating tube method

CC(=O)C(C)=O [2,3-butanedione] + O
Details | excess molar enthalpy [kcal/mol]
[1] | -0.0202

[2]
Details | mass density
288.15 K, x1 = 0.002059 | 1001.04 kg/m3
288.15 K, x1 = 0.002062 | 1001.04 kg/m3
288.15 K, x1 = 0.003086 | 1002 kg/m3
288.15 K, x1 = 0.003089 | 1002 kg/m3
288.15 K, x1 = 0.004111 | 1002.95 kg/m3
288.15 K, x1 = 0.004113 | 1002.96 kg/m3
288.15 K, x1 = 0.005132 | 1003.91 kg/m3
288.15 K, x1 = 0.005135 | 1003.91 kg/m3
288.15 K, x1 = 0.006153 | 1004.87 kg/m3
288.15 K, x1 = 0.006157 | 1004.87 kg/m3
293.15 K, x1 = 0.001031 | 999.136 kg/m3
293.15 K, x1 = 0.00206 | 1000.07 kg/m3
293.15 K, x1 = 0.003088 | 1001 kg/m3
293.15 K, x1 = 0.004114 | 1001.9 kg/m3
293.15 K, x1 = 0.005136 | 1002.82 kg/m3
293.15 K, x1 = 0.006158 | 1003.73 kg/m3
298.15 K, x1 = 0.001032 | 997.937 kg/m3 and 997.929 kg/m3
298.15 K, x1 = 0.002061 | 998.816 kg/m3
298.15 K, x1 = 0.002062 | 998.823 kg/m3
298.15 K, x1 = 0.003089 | 999.697 kg/m3 and 999.692 kg/m3
298.15 K, x1 = 0.004113 | 1000.57 kg/m3
298.15 K, x1 = 0.004114 | 1000.56 kg/m3
298.15 K, x1 = 0.005137 | 1001.45 kg/m3 and 1001.43 kg/m3
298.15 K, x1 = 0.00616 | 1002.32 kg/m3 and 1002.3 kg/m3
303.15 K, x1 = 0.001032 | 996.49 kg/m3
303.15 K, x1 = 0.002061 | 997.341 kg/m3
303.15 K, x1 = 0.003089 | 998.182 kg/m3
303.15 K, x1 = 0.004114 | 999.012 kg/m3
303.15 K, x1 = 0.005137 | 999.84 kg/m3
303.15 K, x1 = 0.006159 | 1000.66 kg/m3
308.15 K, x1 = 0.001031 | 994.828 kg/m3 and 994.831 kg/m3
308.15 K, x1 = 0.00206 | 995.637 kg/m3
308.15 K, x1 = 0.003086 | 996.432 kg/m3
308.15 K, x1 = 0.003088 | 996.443 kg/m3
308.15 K, x1 = 0.004109 | 997.222 kg/m3
308.15 K, x1 = 0.004114 | 997.237 kg/m3
308.15 K, x1 = 0.005131 | 998.031 kg/m3
308.15 K, x1 = 0.005137 | 998.026 kg/m3
308.15 K, x1 = 0.006152 | 998.821 kg/m3
308.15 K, x1 = 0.00616 | 998.816 kg/m3
313.15 K, x1 = 0.001032 | 992.976 kg/m3
313.15 K, x1 = 0.002062 | 993.745 kg/m3
313.15 K, x1 = 0.003091 | 994.499 kg/m3
313.15 K, x1 = 0.004116 | 995.251 kg/m3
313.15 K, x1 = 0.005139 | 996.015 kg/m3
313.15 K, x1 = 0.006161 | 996.763 kg/m3
318.15 K, x1 = 0.001031 | 990.924 kg/m3
318.15 K, x1 = 0.001032 | 990.928 kg/m3
318.15 K, x1 = 0.00206 | 991.645 kg/m3
318.15 K, x1 = 0.002062 | 991.65 kg/m3
318.15 K, x1 = 0.003088 | 992.362 kg/m3
318.15 K, x1 = 0.00309 | 992.361 kg/m3
318.15 K, x1 = 0.004114 | 993.082 kg/m3
318.15 K, x1 = 0.004116 | 993.069 kg/m3
318.15 K, x1 = 0.005137 | 993.801 kg/m3
318.15 K, x1 = 0.00514 | 993.799 kg/m3
318.15 K, x1 = 0.006159 | 994.517 kg/m3
318.15 K, x1 = 0.006164 | 994.503 kg/m3
